The term pIC50 denotes the negative decadic logarithm of the IC50, by convention in mol/L. What is called pEC50 is the EC50 on a negative log10 scale, so that one unit is a factor of ten. One may read the GI50 as the concentration at which growth is held to half of that of the control.

The results in this text go back to ChEMBL document CHEMBL5244235, “Diarylpentanoids with antitumor activity: A critical review of structure-activity relationship studies” (Eur J Med Chem, 2020).

The subject of data set [1] is AGS. The data set can be described thus: Antiproliferative activity against human AGS cells assessed as cell growth inhibition measured upto 72 hrs by MTT assay. It counts as functional, cell-based. (In general: Tetrazolium dyes change colour on reduction, which living cells bring about.)
Data set [2] concerns KYSE-30. The data set can be described thus: Antiproliferative activity against human KYSE-30 cells assessed as cell growth inhibition measured upto 72 hrs by MTT assay. The class given is functional, cell-based. The following applies: KYSE-30, 72 h.
For data set [3], the system named is B16. The data set can be described thus: Antiproliferative activity against mouse B16 cells assessed as cell growth inhibition. The class given is functional, cell-based.
In data set [4] the test system is L1210. The data set is described as follows: Antiproliferative activity against mouse L1210 cells assessed as inhibition of cell growth. It counts as functional, cell-based.
Data set [5] deals with B16. The data set can be described thus: Antiproliferative activity against mouse B16 cells assessed as cell growth inhibition measured after 72 hrs by MTT assay. It counts as functional, cell-based. The following applies: B16, 72 h.
Data set [6] deals with L1210. The data set can be described thus: Antiproliferative activity against mouse L1210 cells assessed as cell growth inhibition measured after 72 hrs by MTT assay. The following applies: L1210, 72 h. It counts as functional, cell-based.
Data set [7] relates to MDA-MB-231. The data set can be described thus: Antiproliferative activity against human MDA-MB-231 cells assessed as cell growth inhibition. It counts as functional, cell-based.
Data set [8] concerns HCC1419. The data set can be described thus: Antiproliferative activity against human HCC1419 cells assessed as cell growth inhibition. It counts as functional, cell-based.
For data set [9], the system named is MCF7. The data set is described as follows: Antiproliferative activity against human MCF7 cells assessed as cell growth inhibition. The class given is functional, cell-based.
Data set [10] is described as follows: Antiproliferative activity against human MCF-10A cells assessed as cell growth inhibition. The class given is toxicity, cell-based.
Data set [11] has as its system MDA-MB-231. The data set is described as follows: Antiproliferative activity against lung metastasis variant of human MDA-MB-231 cells assessed as cell growth inhibition. It counts as functional, cell-based.
Data set [12] has as its system HUVEC. The data set is described as follows: Anti-angiogenesis activity in HUVEC cells. It counts as functional, cell-based. The following applies: Homo sapiens.
Data set [13] can be described thus: Antiproliferative activity against human MRC9 cells assessed as cell growth inhibition measured after 72 hrs by MTT assay. The following applies: MRC9, 72 h. It counts as functional, cell-based.
Data set [14] has as its system MDA-MB-231. The data set is described as follows: Growth inhibition of human MDA-MB-231 cells measured after 72 hrs by microplate reader analysis. The class given is functional.
In data set [15] the test system is RPMI-7951. The data set is described as follows: Growth inhibition of human RPMI-7951 cells measured after 72 hrs by microplate reader analysis. The class given is functional, cell-based. The following applies: RPMI-7951, time 72 hrs.
The nature of data set [16]: Cytotoxicity against HUVEC cells assessed as cell growth inhibition by anti-angiogenisis screening assay. The class given is toxicity, cell-based. The following applies: human.
Data set [17] can be described thus: Cytotoxicity against mouse MS-1 cells assessed as cell growth inhibition by anti-angiogenisis screening assay. The class given is toxicity, cell-based.
Data set [18] in a line: Cytotoxicity against mouse SVR cells assessed as cell growth inhibition by anti-angiogenisis screening assay. The class given is toxicity, cell-based.
The subject of data set [19] is HeLa. The data set can be described thus: Antiproliferative activity against human HeLa cells assessed as cell growth inhibition measured after 72 hrs by MTT assay. It counts as functional, cell-based. The following applies: hela.
Data set [20] relates to Ca-Ski. The data set is described as follows: Antiproliferative activity against human Ca-Ski cells assessed as cell growth inhibition measured after 72 hrs by MTT assay. The class given is functional, cell-based.
The subject of data set [21] is GCIY. The data set is described as follows: Antiproliferative activity against human GCIY cells assessed as cell growth inhibition measured after 72 hrs. The class given is functional, cell-based.
Data set [22] can be described thus: Antiproliferative activity against human SH-10-TC cells assessed as cell growth inhibition measured after 72 hrs. It counts as functional, cell-based.
Data set [23] relates to HCT-116. The data set is described as follows: Antiproliferative activity against human HCT-116 cells assessed as cell growth inhibition measured after 72 hrs. The following applies: HCT-116, 72 h. The class given is functional, cell-based.
Data set [24] concerns DLD-1. The data set is described as follows: Antiproliferative activity against human DLD-1 cells assessed as cell growth inhibition measured after 72 hrs. It counts as functional, cell-based. The following applies: DLD-1, 72 h.
Data set [25] relates to A549. The data set is described as follows: Antiproliferative activity against human A549 cells assessed as cell growth inhibition measured after 72 hrs. The class given is functional, cell-based. The following applies: A549, 72 h.
Data set [26] has as its system ACHN. The data set can be described thus: Antiproliferative activity against human ACHN cells assessed as cell growth inhibition measured after 72 hrs. It counts as functional, cell-based.
The test system of data set [27] is Huh-7. The data set can be described thus: Antiproliferative activity against human Huh-7 cells assessed as cell growth inhibition measured after 72 hrs. The class given is functional, cell-based. The following applies: Huh-7, 72 h.
A short description of data set [28]: Antiproliferative activity against human OVK18 cells assessed as cell growth inhibition measured after 72 hrs. It counts as functional, cell-based. The following applies: OVK18, 72 h.
The subject of data set [29] is MCF7. The data set can be described thus: Antiproliferative activity against human MCF7 cells assessed as cell growth inhibition measured after 72 hrs. The class given is functional, cell-based. The following applies: MCF7, 72 h.
In data set [30] the test system is A-431. The data set is described as follows: Antiproliferative activity against human A-431 cells assessed as cell growth inhibition measured after 72 hrs. The following applies: A-431, 72 h. The class given is functional, cell-based.
For data set [31], the system named is HuCCT-1. The data set can be described thus: Antiproliferative activity against human HuCCT-1 cells assessed as cell growth inhibition measured after 72 hrs. The class given is functional, cell-based. The following applies: HuCCT-1, 72 h.
Data set [32] relates to 8505C. The data set can be described thus: Antiproliferative activity against human 8505C cells assessed as cell growth inhibition measured after 72 hrs. It counts as functional, cell-based.
In data set [33] the test system is G-361. The data set can be described thus: Antiproliferative activity against human G-361 cells assessed as cell growth inhibition measured after 72 hrs. The class given is functional, cell-based. The following applies: G-361, 72 h.
The subject of data set [34] is PC-3. The data set can be described thus: Antiproliferative activity against human PC-3 cells assessed as cell growth inhibition measured after 72 hrs. The class given is functional, cell-based. The following applies: PC-3, 72 h.
Data set [35] in a line: Antiproliferative activity against human PK-1 cells assessed as cell growth inhibition measured after 72 hrs. It counts as functional, cell-based. The following applies: PK-1, 72 h.
The test system of data set [36] is DLD-1. The data set can be described thus: Antiproliferative activity against human DLD-1 cells assessed as cell growth inhibition measured after 96 hrs. It counts as functional, cell-based. The following applies: DLD-1, 96 h.
The test system of data set [37] is HCT-116. The data set can be described thus: Antiproliferative activity against human HCT116 cells assessed as cell growth inhibition measured after 96 hrs. It counts as functional, cell-based. The following applies: HCT-116, 96 h.
Data set [38] relates to NCI-H460. The data set can be described thus: Antiproliferative activity against human NCI-H460 cells assessed as cell growth inhibition measured after 24 hrs by MTT assay. The following applies: NCI-H460, 24 h. The class given is functional, cell-based.
The test system of data set [39] is A549. The data set is described as follows: Antiproliferative activity against human A549 cells assessed as cell growth inhibition measured after 24 hrs by MTT assay. The class given is functional, cell-based. The following applies: A549, 24 h.

pEC50, pIC50: −log10 of the molar value. Several values for one entry are separate records, joined by “and”; a condition that tells them apart may be missing. Equal values may be shown once.

With `C#CCOc1ccc(/C=C2\CCC/C(=C\c3ccc(OCC#C)c(OC)c3)C2=O)cc1OC`, the figures for the pIC50 in data set [1] and in data set [2] were 6.25 and 5.44, respectively.
`CCOc1ccc(/C=C2\CCC/C(=C\c3ccc(OCC)c(OC)c3)C2=O)cc1OC`: the pIC50 is 6.14 in [1] and 5.47 in [2].
As for `COc1cc(/C=C2\CNC/C(=C\c3cc(OC)cc(OC)c3OC)C2=O)c(OC)c(OC)c1`, the pIC50 was 6.70 in [3] and 6.52 in [4].
On to `O=C1/C(=C/c2ccc([N+](=O)[O-])cc2)CC(c2ccccc2)C/C1=C\c1ccc([N+](=O)[O-])cc1` (stereo not given), for which the pIC50 was 5.80 in data set [5] and 6.46 in data set [6].
Consider `C#CCOc1ccc(/C=C2\CCC/C(=C\c3ccc(OCC#C)cc3)C2=O)cc1`, for which the pIC50 was 6.14 in [1] and 5.47 in data set [2].
As to `CCN(CC)CCOc1cccc(C(=O)N2C/C(=C\c3ccccc3)C(=O)/C(=C/c3ccccc3)C2)c1`, the pIC50 in data set [7] was 6.14; in data set [8] it was 5.84; in data set [9] it was 5.79; in data set [10], 4.39; in data set [11], 6.28.
For the compound `COCOc1cc(/C=C/C(=O)CC(SCC(=O)OC)c2cc(OCOC)cc(OCOC)c2)cc(OCOC)c1` (stereo not given), the negative-log IC50 (pIC50) in data set [12] is 6.40.
Turning to `O=C(/C=C/c1ccccc1O)/C=C/c1ccccc1O`, the pEC50 is 5.34 in data set [13]; 5.99 and 5.59 in [19]; 5.99 in [20]. The GI50 in data set [14] stood at 1000 nM; in data set [15], 2300 nM; in data set [16] it was 1800 nM; in [17], 1800 nM; in [18], 1800 nM.
`C=C1CC2CC(C1)/C(=C\c1ccc(OC)c(OC)c1)C(=O)/C2=C/c1ccc(OC)c(OC)c1`: the pIC50 in data set [21], in data set [22], in [23], in data set [24], in data set [25] and in data set [26] was less than 4.30 each time. Also, the pIC50 in [27], in data set [28], in data set [29], in [30], in data set [31] and in data set [32] was less than 4.30 in each case. The pIC50 is less than 4.30 in [33], less than 4.30 in data set [34], less than 4.30 in data set [35] and 5.10 in [36].
Consider `COc1cc(/C=C/C(=O)/C=C/c2cc(OC)c(OC)c(OC)c2)cc(OC)c1O`, for which the pIC50 in data set [21], in [22], in [23], in data set [24], in [25] and in data set [26] was 6.00 each time. Further, the pIC50 in data set [27], in data set [28], in data set [29], in data set [30], in data set [31] and in data set [32] was 6.00 throughout. For the same compound, the pIC50 in data set [33] is 6.00; in data set [34], 6.00; in [35] it was 6.00; in [12], 6.40.
Consider `COCOc1c(OC)cc(/C=C/C(=O)/C=C/c2cc(OC)c(OCOC)c(OC)c2)cc1OC`, for which, in data set [37], the pIC50 was 6.60.
Take `O=C1/C(=C/c2ccccc2)CCC/C1=C\c1ccccc1` [2,6-DIBENZYLIDENECYCLOHEXANONE]: the pIC50 in data set [21], in data set [22], in data set [23], in data set [24], in [25] and in [26] was less than 4.30 throughout. Also, the pIC50 in data set [27], in [28], in data set [29], in data set [30], in data set [31] and in data set [32] was less than 4.30 each time. Also, the pIC50 was less than 4.30 in [33], less than 4.30 in data set [34], less than 4.30 in [35] and 5.52 in data set [36].
Turning to `COc1cc(/C=C/C(=O)CC(=O)/C=C/c2ccc(O)c(OC)c2)ccc1O` [CURCUMIN], the pIC50 in data set [38] is 5.28; in [39], 4.49.
